Format in all cases: cell-based, human
For one experiment, the system named is IL-8. The experiment in a line: IL-8 ELISA (Part 1, Quantikine kit), surfactant-induced irritation. The following applies: for IL-8 secreted: human dermal keratinocytes co-treated with surfactant mixture (sodium laureth sulfate + polyquaternium-10), Control B = 100%, Control A = 0%; for Reduction of IL-8 Secretion Compared to Control B: subtracting from 100% for Control B. From the text: Interleukin 8 (IL-8) is a chemokine and proinflammatory cytokine produced by macrophages and other cell types such as epithelial cells. It is secreted from keratinocytes in skin in response to inflammatory stimuli. IL-8 is secreted and is an important mediator of the immune reaction in the innate immune system response. IL-8 overexpressed is a biomarker of skin irritation.
For Control A, human dermal keratinocytes are left untreated. No irritation is expected, and therefore Control A provides a baseline. For Control B, IL-8 is induced in human dermal keratinocytes by applying a surfactant mixture that is a combination of sodium laureth sulfate and polyquaternium-10. For all other samples, the human dermal keratinocytes are co-treated with the surfactant mixture and a composition containing the ingredient of interest. Decreased Il-8 expression reflects the ingredient's anti-irritation activity.
In order to carry out the test method, an assay kit was employed that was obtained from R&D Systems: Human CXCL8/IL-8 Quantikine ELISA Kit.
The following steps were followed: 1. Bring all reagents and samples to room temperature before use. 2. Prepare all reagents, standard dilutions, and samples. 3. Remove excess microplate strips from the plate frame, return them to the foil pouch containing the desiccant pack, and reseal. 4. Add 100 μL of Assay Diluent to each well. 5. Add 50 μL of Standard, control, or sample to each well. Cover with a plate sealer, and incubate at room temperature for 2 hours. 6. Aspirate each well and wash, repeating the process 3 times for a total of 4 washes. 7. Add 100 μL of Conjugate to each well. Cover with a new plate sealer, and incubate at room temperature for 1 hour. 8. Aspirate and wash 4 times. 9. Add 200 μL Substrate Solution to each well. Incubate at room temperature for 30 minutes, making sure to protect the wells from the light. 10. Add 50 μL of Stop Solution to each well. The liquid was removed from the well and, using a colorimeter, absorbance was measured at 450 nanometers (nm) within 30 minutes. Wavelength correction was set to 540 nm or 570 nm.
The samples were tested for IL-8 secretion as described in the test method above. That is, for Control A, human dermal keratinocytes were left untreated. For Control B, IL-8 a surfactant mixture that was a combination of sodium laureth sulfate and polyquaternium-10. For all other samples, the human dermal keratinocytes were co-treated with the surfactant mixture and a composition containing the ingredient of interest. Decreased 11-8 expression reflects the ingredient's anti-irritation activity. The results are summarized in Table 2 and shown graphically in FIG. 1.
The amount of the reduction in IL-8 secretion for the test samples (subtracting from 100% for Control B) is summarized in Table 2 and shown graphically in FIG. 2. It can be seen that the combination of acetyl hexapeptide-46 and acetyl hexapeptide-38 produce an enhanced reduction in IL-8 secretion, particularly for the higher concentrations.

A further experiment concerns DSC3. The experiment in a line: Cell-cell junction, qRT-PCR for desmocollin (DSC3). To be noted: keratinocytes treated overnight; KGM = 100. The source says: (§1) Tight Junctions are the closely associated areas of two cells whose membranes join together forming a virtually impermeable barrier to fluid. A desmosome is a cell structure specialized for cell-to-cell adhesion. A type of junction complex, they are localized spot-like adhesions randomly arranged on the lateral sides of plasma membranes. Desmosomes are molecular complexes of cell adhesion proteins and linking proteins that attach the cell surface adhesion proteins to intracellular keratin cytoskeletal filaments.
(§2) The cell adhesion proteins of the desmosome, desmoglein (DSG) and desmocollin (DSC), are members of the cadherin family of cell adhesion molecules. They are biomarker of skin tight junctions. In particular, DSG1 is a biomarker for cell binding, the higher the expression, the better skin cell-cell junction and the better skin barrier function will be. DSC3 is a protein in humans that is encoded by the DSC3 gene, the higher the expression, the better skin cell-cell junction and the better skin barrier function will be.
(§3) In the present method, keratinocytes were treated with the sample compositions in a 6-well plate overnight. After washing with cold phosphate-buffered saline (PBS), total RNAs were prepared from each well. Real-Time Quantitative Reverse Transcription PCR (qRT-PCR) was performed to detect the target genes ([…]) expression level using a One-step TaqMan® RT-PCR kit (Life Technologies).
(§4) Samples containing various amounts of acetyl hexapeptide-38 and/or acetyl hexapeptide-46 were tested for cell-cell junction, as described above. Solution of Vitamin D3 and keratinocyte growth medium (KGM) were used for comparison. The results are summarized in Tables 3-4 below, and graphically represented in FIGS. 3-4. It can be seen that compositions containing acetyl hexapeptide-38 and/or acetyl hexapeptide-46 enhanced cell-cell junction when compared to Vitamin D3 and KGM.

For another experiment, the system named is DSG1. The experiment in a line: Cell-cell junction, qRT-PCR for desmoglein (DSG1). The following applies: keratinocytes treated overnight; KGM = 100.
Text: as §1, §2, §3, §4

For a further experiment, the system named is APQ3. The experiment in a line: Skin water channel biomarker: APQ3 expression. The following applies: FIG. 10. The source says:
FIG. 5 is a graphical representation of the effect of various compositions on the irritation response of cells treated with known irritants, as quantified by measuring IL-8 secretion, and on cell viability. FIG. 6 is a graphical representation of Involucrin Expression—Keratinocytes (KC) differentiation. FIG. 7 is a graphical representation of PPARδ expression—ceramides related biomarker. FIG. 8 is a graphical representation of ABCA12 expression—fatty acid related biomarker. FIG. 9 is a graphical representation of DSC1 expression—cell-cell junction biomarker. FIG. 10 is a graphical representation of APQ3 expression—skin water channel.
An in vitro model was employed, using monolayer human dermal keratinocytes culture (KGM). Two controls were tested: the medium and inflammatory cytokines interleukin (IL-1b).
Skin Barrier Biomarkers: ABCA12, Involucrin, PPARδ. Different concentrations of ingredients were used to treat the keratinocyte for 24 hours. Cells were collected and total RNA prepared from the treated cells. Real-time RT-PCT was used to detect different barrier function related biomarker's gene expression level. Comparative Benchmark: Vitamin D3 (cholecalciferol) in three different concentrations.

For the molecule acetyl hexapeptide-46 [Example 2C], in the experiment with IL-8, the IL-8 secreted is reported as 65.60% and the “Reduction of IL-8 Secretion Compared to Control B” value (“Reduction” for short) amounted to 34.40%.

Acetyl hexapeptide-38 [Example 3A]: the DSC3 % in the experiment on DSC3 came out at 160%.

As for Acetyl hexapeptide-46 [Example 3F], the DSC3 % in the experiment with DSC3 was 265%. The molecule further gave a DSG1 % in the experiment on DSG1 of 199%.

As to acetyl hexapeptide-46 [Example 2D], in the experiment with IL-8, the IL-8 secreted is listed as 78.20% and the “Reduction” value worked out at 21.80%.

acetyl hexapeptide-46 [Example 2A]: in the experiment on IL-8, the IL-8 secreted is on record as 27.10% and the “Reduction” value is 72.90%.

For acetyl hexapeptide-38 [Example 1A], in the experiment with IL-8, the IL-8 secreted was 69.60% and the “Reduction” value came out at 30.40%.

Molecule `C=C1CC[C@H](O)C/C1=C/C=C1\CCC[C@]2(C)[C@@H]([C@H](C)CCCC(C)C)CC[C@@H]12` [VitD3, cholecalciferol, reference compound] yielded a DSC3 % in the experiment on DSC3 of 109%. Also, the DSG1 % with DSG1 is on record as 65%.

acetyl hexapeptide-46 [Example 2G]: in the experiment on IL-8, the IL-8 secreted is given as −6.90% and the “Reduction” value turned out to be 106.90%.

In the experiment with DSC3, Acetyl hexapeptide-38 [Example 3C] registered a DSC3 % of 210%. In the experiment with DSG1, this molecule displayed a DSG1 % of 178%.

On to acetyl hexapeptide-38 [Example 1B], for which, in the experiment with IL-8, the IL-8 secreted was 71.70% and the “Reduction” value turned out to be 28.30%.

In the experiment with DSC3, Acetyl hexapeptide-46 [Example 3E] displayed a DSC3 % of 377%. In the experiment with DSG1, this molecule yielded a DSG1 % of 162%.

Consider acetyl hexapeptide-38 [Example 1D], for which, in the experiment with IL-8, the IL-8 secreted was 95.80% and the “Reduction” value worked out at 4.20%.

As for Acetyl hexapeptide-46 [Example 3D], the DSC3 % in the experiment on DSC3 is 230%.

Regarding acetyl hexapeptide-38, the “effect on IL-8 secretion compared to Control B (in words)” value in the experiment with IL-8 was “reduce the IL-8 secretion”.

As for acetyl hexapeptide-38 [Example 1C], in the experiment with IL-8, the IL-8 secreted is 84.90% and the “Reduction” value is reported as 15.10%.

Regarding acetyl hexapeptide-46, in the experiment on IL-8, the “effect on IL-8 secretion compared to Control B (in words)” value is “reduce the IL-8 secretion”. Also, in the experiment with APQ3, the “APQ3 expression in KC (in words)” value was “does not individually stimulate APQ3 expression”.

acetyl hexapeptide-46 [Example 2B]: in the experiment with IL-8, the IL-8 secreted is listed as 50.90% and the “Reduction” value worked out at 49.10%.

Regarding acetyl hexapeptide-38 [Example 1G], in the experiment on IL-8, the IL-8 secreted was found to be 57.20% and the “Reduction” value is given as 42.80%.

With Acetyl hexapeptide-38 [Example 3B], the DSC3 % in the experiment with DSC3 is on record as 205%. The DSG1 % in the experiment on DSG1 was 144%.

For the origin of these results see US20160206543A1, “SYNERGISTIC COMPOSITIONS AND METHODS FOR MITIGATING SKIN IRRITATION AND ENHANCING SKIN BARRIER FUNCTION” (GOJO INDUSTRIES, INC., priority 2014, published 2016).
